# Source: US20120065267A1, “COMPOSITIONS INCLUDING 3,5-L-T2 AND METHODS OF USE THEREOF” (priority 2010, published 2012)
# Values joined by “and” are separate entries in the source; they are usually repeats but may differ in a detail not shown here. Identical values can stand only once.
# How the values were obtained:
# [1] = tested on: growth hormone gene expression; settings: cited from earlier work
# [2] = Body weight of mice on Western Diet given low or high dose T2; type: in vivo
# Description: This corresponds to a dosage for an 80 kg human of about 20-200 mg/day, or a low dose of about 0.2-0.3 mg/kg of body weight to a high dose of about 2-3 mg/kg of body weight. One will appreciate, however, that some subjects (e.g., subjects having very low LDL receptor function) may receive higher doses, depending on need. likewise, some subjects may receive lower doses, which again depends on need. Mice in the study were fed a standard lab chow referred to as the “Western Diet.” The overall level of fat and the saturated nature of the fat are representative diets typical in the industrialized west that are linked to risk of cardiovascular disease in humans. The formula is used primarily with genetically manipulated rodent models that are susceptible to high cholesterol and cardiovascular disease. The diet may also be useful in diet-induced obesity, diabetes, and metabolic syndrome models. High cholesterol, obesity, and diabetes are each associated increased risk for cardiovascular disease. The composition of the Western Diet is shown below. C57 is a wild-type strain, LDLr+/− are a strain carrying one functional copy of the LDLr gene, and the LDLr0 animals are total LDLr knockouts. The LDLr gene encodes for the LDL receptor protein, which is responsible for scavenging LDL with bound cholesterol from the blood and transporting it into cells. Both heterozygous and homozygous LDLr knockout animals develop very high serum cholesterol levels and are considered to be a good model for heterozygous and homozygous familial hypercholesterolemia in humans. […] LDLr knockout animals have zero LDL receptor function.
structure (smiles),measurement,setting,value
"N[C@@H](Cc1cc(I)c(Oc2ccc(O)cc2)c(I)c1)C(=O)O [T2, (2S)-2-amino-3-[4-(4-hydroxyphenoxy)-3,5-diiodophenyl]propanoic acid]",potency relative to T3 in increasing growth hormone gene expression,[1],1/100
same,Body weight (Ave),"[2]; C57 mice, High Dose T2 2.5 mg/kg daily oral, Day 1, group average",28.1 g
same,Body weight,"[2]; C57 mice, High Dose T2 2.5 mg/kg daily oral, Day 1, individual animal, 2.5 mg/kg",29.6 (2×) and 24.9 and 29.8 and 26.7
same,Body weight (Ave),"[2]; C57 mice, High Dose T2 2.5 mg/kg daily oral, Day 2, group average",28.4 g
same,Body weight,"[2]; C57 mice, High Dose T2 2.5 mg/kg daily oral, Day 2, individual animal, 2.5 mg/kg, in g (unit assumed)",29.5 and 30.1 and 25.8 and 29.7 and 27.1
same,Body weight (Ave),"[2]; C57 mice, High Dose T2 2.5 mg/kg daily oral, Day 3, group average",28.4 g
same,Body weight,"[2]; C57 mice, High Dose T2 2.5 mg/kg daily oral, Day 3, individual animal, 2.5 mg/kg, in g (unit assumed)",29.8 and 30.0 and 25.1 and 29.9 and 27.2
same,Body weight (Ave),"[2]; C57 mice, High Dose T2 2.5 mg/kg daily oral, Day 4, group average",27.4 g
same,Body weight,"[2]; C57 mice, High Dose T2 2.5 mg/kg daily oral, Day 4, individual animal, 2.5 mg/kg, in g (unit assumed)",29.1 and 28.7 and 23.4 and 28.8 and 27
same,Body weight (Ave),"[2]; C57 mice, High Dose T2 2.5 mg/kg daily oral, Day 5, group average",27.7 g
same,Body weight,"[2]; C57 mice, High Dose T2 2.5 mg/kg daily oral, Day 5, individual animal, 2.5 mg/kg, in g (unit assumed)",29.7 and 29.1 and 24.1 and 28.5 and 27.3
same,Body weight (Ave),"[2]; C57 mice, Low Dose T2 0.25 mg/kg daily oral, Day 1, group average",25.2 g
same,Body weight,"[2]; C57 mice, Low Dose T2 0.25 mg/kg daily oral, Day 1, individual animal, 0.25 mg/kg, in g (unit assumed)",26.5 and 27.0 and 23.0 and 26.4 and 24.0 and 24.1
same,Body weight (Ave),"[2]; C57 mice, Low Dose T2 0.25 mg/kg daily oral, Day 2, group average",26.1 g
same,Body weight,"[2]; C57 mice, Low Dose T2 0.25 mg/kg daily oral, Day 2, individual animal, 0.25 mg/kg, in g (unit assumed)",28.2 and 27.7 and 24.1 and 26.3 and 25.5 and 24.9
same,Body weight (Ave),"[2]; C57 mice, Low Dose T2 0.25 mg/kg daily oral, Day 3, group average",26.5 g
same,Body weight,"[2]; C57 mice, Low Dose T2 0.25 mg/kg daily oral, Day 3, individual animal, 0.25 mg/kg, in g (unit assumed)",28.3 and 27.8 and 23.3 and 27.9 and 26.2 and 25.6
same,Body weight (Ave),"[2]; C57 mice, Low Dose T2 0.25 mg/kg daily oral, Day 4, group average",25.8 g
same,Body weight,"[2]; C57 mice, Low Dose T2 0.25 mg/kg daily oral, Day 4, individual animal, 0.25 mg/kg, in g (unit assumed)",26.8 and 27.2 and 23.7 and 26.7 and 25.1 and 25.4
same,Body weight (Ave),"[2]; C57 mice, Low Dose T2 0.25 mg/kg daily oral, Day 5, group average",26.8 g
same,Body weight,"[2]; C57 mice, Low Dose T2 0.25 mg/kg daily oral, Day 5, individual animal, 0.25 mg/kg, in g (unit assumed)",27.3 and 28.3 and 24.5 and 27.5 and 26.4
same,Body weight (Ave),"[2]; C57 mice, Low Dose T2 0.25 mg/kg daily oral, Day 6, group average",27.5 g
same,Body weight,"[2]; C57 mice, Low Dose T2 0.25 mg/kg daily oral, Day 6, individual animal, 0.25 mg/kg, in g (unit assumed)",28.1 and 29.9 and 24.8 and 28.7 and 26.1
same,Body weight (Ave),"[2]; C57 mice, Low Dose T2 0.25 mg/kg daily oral, Day 7, group average",28.3 g
same,Body weight,"[2]; C57 mice, Low Dose T2 0.25 mg/kg daily oral, Day 7, individual animal, 0.25 mg/kg, in g (unit assumed)",29.5 and 30.7 and 26.2 and 29.0 and 26.1
same,Body weight (Ave),"[2]; LDLr0 mice, High Dose T2 2.5 mg/kg daily oral, Day 1, group average",25.7 g
same,Body weight,"[2]; LDLr0 mice, High Dose T2 2.5 mg/kg daily oral, Day 1, individual animal, 2.5 mg/kg, in g (unit assumed)",23.9 and 27.4
same,Body weight (Ave),"[2]; LDLr0 mice, High Dose T2 2.5 mg/kg daily oral, Day 2, group average",24 g
same,Body weight,"[2]; LDLr0 mice, High Dose T2 2.5 mg/kg daily oral, Day 2, individual animal, 2.5 mg/kg, in g (unit assumed)",23.1 and 24.8
same,Body weight (Ave),"[2]; LDLr0 mice, High Dose T2 2.5 mg/kg daily oral, Day 3, group average",23.9 g
same,Body weight,"[2]; LDLr0 mice, High Dose T2 2.5 mg/kg daily oral, Day 3, individual animal, 2.5 mg/kg, in g (unit assumed)",22.8 and 24.9
same,Body weight (Ave),"[2]; LDLr0 mice, High Dose T2 2.5 mg/kg daily oral, Day 4, group average",24.2 g
same,Body weight,"[2]; LDLr0 mice, High Dose T2 2.5 mg/kg daily oral, Day 4, individual animal, 2.5 mg/kg, in g (unit assumed)",23.5 and 24.8
same,Body weight (Ave),"[2]; LDLr0 mice, High Dose T2 2.5 mg/kg daily oral, Day 5, group average",24.2 g
same,Body weight,"[2]; LDLr0 mice, High Dose T2 2.5 mg/kg daily oral, Day 5, individual animal, 2.5 mg/kg, in g (unit assumed)",23.1 and 25.3
same,Body weight (Ave),"[2]; LDLr0 mice, Low Dose T2 0.25 mg/kg daily oral, Day 1, group average",22.3 g
same,Body weight,"[2]; LDLr0 mice, Low Dose T2 0.25 mg/kg daily oral, Day 1, individual animal, 0.25 mg/kg, in g (unit assumed)",23.1 and 21.1 and 22.7 and 22.1
same,Body weight (Ave),"[2]; LDLr0 mice, Low Dose T2 0.25 mg/kg daily oral, Day 2, group average",22.8 g
same,Body weight,"[2]; LDLr0 mice, Low Dose T2 0.25 mg/kg daily oral, Day 2, individual animal, 0.25 mg/kg, in g (unit assumed)",21.6 and 23.6 and 23.2
same,Body weight (Ave),"[2]; LDLr0 mice, Low Dose T2 0.25 mg/kg daily oral, Day 3, group average",23.4 g
same,Body weight,"[2]; LDLr0 mice, Low Dose T2 0.25 mg/kg daily oral, Day 3, individual animal, 0.25 mg/kg, in g (unit assumed)",22.3 and 24.4 and 23.5
same,Body weight (Ave),"[2]; LDLr0 mice, Low Dose T2 0.25 mg/kg daily oral, Day 4, group average",22.3 g
same,Body weight,"[2]; LDLr0 mice, Low Dose T2 0.25 mg/kg daily oral, Day 4, individual animal, 0.25 mg/kg, in g (unit assumed)",21.2 and 22.9 and 22.8
same,Body weight (Ave),"[2]; LDLr0 mice, Low Dose T2 0.25 mg/kg daily oral, Day 5, group average",22.4 g
same,Body weight,"[2]; LDLr0 mice, Low Dose T2 0.25 mg/kg daily oral, Day 5, individual animal, 0.25 mg/kg, in g (unit assumed)",22.0 and 22.2 and 23.0
same,Body weight (Ave),"[2]; LDLr0 mice, Low Dose T2 0.25 mg/kg daily oral, Day 6, group average",22.3 g
same,Body weight,"[2]; LDLr0 mice, Low Dose T2 0.25 mg/kg daily oral, Day 6, individual animal, 0.25 mg/kg, in g (unit assumed)",22.1 and 21.7 and 23.1
same,Body weight (Ave),"[2]; LDLr0 mice, Low Dose T2 0.25 mg/kg daily oral, Day 7, group average",22.2 g
same,Body weight,"[2]; LDLr0 mice, Low Dose T2 0.25 mg/kg daily oral, Day 7, individual animal, 0.25 mg/kg, in g (unit assumed)",22.4 and 20.6 and 23.6
same,Body weight (Ave),"[2]; LDLr+/− mice, High Dose T2 2.5 mg/kg daily oral, Day 1, group average",30.8 g
same,Body weight,"[2]; LDLr+/− mice, High Dose T2 2.5 mg/kg daily oral, Day 1, individual animal, 2.5 mg/kg, in g (unit assumed)",32.8 and 31.8 and 29.8 and 31.4 and 29.2 and 29.6
same,Body weight (Ave),"[2]; LDLr+/− mice, High Dose T2 2.5 mg/kg daily oral, Day 2, group average",31.3 g
same,Body weight,"[2]; LDLr+/− mice, High Dose T2 2.5 mg/kg daily oral, Day 2, individual animal, 2.5 mg/kg, in g (unit assumed)",33.3 and 34.5 and 29.8 and 31.0 and 29.1 and 29.9
same,Body weight (Ave),"[2]; LDLr+/− mice, High Dose T2 2.5 mg/kg daily oral, Day 3, group average",31.1 g
same,Body weight,"[2]; LDLr+/− mice, High Dose T2 2.5 mg/kg daily oral, Day 3, individual animal, 2.5 mg/kg",33.1 and 33.9 and 29.8 (2×) and 30.9 and 29.3
same,Body weight (Ave),"[2]; LDLr+/− mice, High Dose T2 2.5 mg/kg daily oral, Day 4, group average",29.8 g
same,Body weight,"[2]; LDLr+/− mice, High Dose T2 2.5 mg/kg daily oral, Day 4, individual animal, 2.5 mg/kg, in g (unit assumed)",32.1 and 33.0 and 29.0 and 30.1 and 27.9 and 26.8
same,Body weight (Ave),"[2]; LDLr+/− mice, High Dose T2 2.5 mg/kg daily oral, Day 5, group average",29.7 g
